Assay results taken from US9815863B2, “Hydrogen bond forming fluoro ketolides for treating diseases” (priority 2010, dated 2017).

Tests used:
[1] = tested on: E. coli ribosomes (23S rRNA); test: RNA footprinting (ribosome chemical probing), wild-type E. coli ribosomes; format: binding; conditions: E. coli ribosomes, 100 μM antibiotic
Procedure: (§1) Ribosome chemical probing. rRNA probing was done following standard protocols (Merryman, C., and H. F. Noller. 1998. Footprinting and modification-interference analysis of binding sites on RNA, p. 237-253. In C. W. J. Smith (ed.), RNA:Protein Interactions, A Practical Approach. Oxford University Press, Oxford), with minor modifications. Briefly, 200 nM ribosomes were incubated with 100 μM antibiotic in 50 μL of buffer B (80 mM HEPES-KOH [pH 7.8], 20 mM MgCl2, 100 mM NH4Cl, 1.5 mM dithiothreitol) for 10 min at 37° C., followed by 10 min at 20° C. Modifying reagents (dimethyl sulfate [DMS], kethoxal, or 1-cyclohexyl-3-(2-morpholinoethyl)carbodiimide metho p-toluene sulfonate [CMCT]) were added and the modification reaction was carried out for 10 min at 37° C. After quenching the reaction and ethanol precipitation, rRNA was extracted and the distribution of modified nucleotides was assessed by primer extension.
(§2) Interactions of CEM-101 with wild-type E. coli and S. aureus ribosomes in solution. […] 1987. Chloramphenicol, erythromycin, carbomycin and vernamycin B protect overlapping sites in the peptidyl transferase region of 23S ribosomal RNA. Biochimie 69:879-884). Also included in this study was a C3-cladinose cousin of CEM-101, CEM-103, which lacks the C2-linked fluorine atom.

E. coli 70S ribosomes = test: Saturation (direct) binding of radiolabeled drug to E. coli ribosomes, spin-column
Procedure: (§3) Ribosomes were prepared from E. coli, strain MRE 600, S. aureus strain ATCC 29212, or S. aureus strain N315 by standard protocols (Spedding™, G. 1990. Isolation and analysis of ribosomes from prokaryotes, eukaryotes, and organelles, p. 1-29. In G. Spedding (ed.), Ribosomes and protein synthesis, a practical approach. Oxford University Press, Oxford, United Kingdom; Adams, P. D., P. V. Afonine, G. Bunkoczi, V. B. Chen, I. W. Davis, N. Echols, J. J. Headd, L. W. Hung, G. J. Kapral, R. W. Grosse-Kunstleve, A. J. McCoy, N. W. Moriarty, R. Oeffner, R. J. Read, D. C. Richardson, J. S. Richardson, T. C. Terwilliger, and P. H. Zwart. 2010. PHENIX: a comprehensive Python-based system for macromolecular structure solution. Acta Crystallogr. D. Biol. Crystallogr. 66:213-221).
(§4) Competition binding studies. […]
(§5) Direct antibiotic binding experiments were done by incubating ribosomes at a 100 nM concentration with varying concentrations of radiolabeled drug in a total volume of 160 μL in buffer A (20 mM Tris-HCl [pH 7.5], 10 mM MgCl2, 150 mM NH4Cl, 6 mM 2-mercaptoethanol) at 37° C. for 15 min, then at 20° C. for 10 min. […] Radioactivity was measured in a scintillation counter and used to calculate the amount of the radiolabeled drug bound to ribosomes.

[2] = tested on: S. aureus ribosomes (23S rRNA); test: RNA footprinting (ribosome chemical probing), wild-type S. aureus ribosomes; format: binding; conditions: S. aureus ribosomes, 100 μM antibiotic
Procedure: as §1, §2

S. aureus 70S ribosomes = test: Saturation (direct) binding of radiolabeled drug to S. aureus wild-type ribosomes, spin-column
Procedure: as §3, §4, §5

[3] = tested on: ribosomes isolated from the S. aureus N315 strain; test: Binding of [14C]erythromycin to ribosomes from S. aureus N315; conditions: ribosomes from S. aureus N315, dimethylated at A2058
Procedure: Competition binding studies. Binding of erythromycin to E. coli and S. aureus ribosomes and competition experiments were done by size-exclusion chromatography using Bio-Gel P30 spin columns as described in Xiong, L., Y. Korkhin, and A. S. Mankin. 2005. Binding site of the bridged macrolides in the Escherichia coli ribosome. Antimicrob. Agents Chemother. 49:281-288.
Direct antibiotic binding experiments were done by incubating ribosomes at a 100 nM concentration with varying concentrations of radiolabeled drug in a total volume of 160 μL in buffer A (20 mM Tris-HCl [pH 7.5], 10 mM MgCl2, 150 mM NH4Cl, 6 mM 2-mercaptoethanol) at 37° C. for 15 min, then at 20° C. for 10 min. The reactions were loaded onto the spin columns and centrifuged in a swinging-bucket microcentrifuge rotor for 1 min at 1,000 g at room temperature. The flow-through solution was collected; 130 μL was mixed with 5 mL of the scintillation cocktail. Radioactivity was measured in a scintillation counter and used to calculate the amount of the radiolabeled drug bound to ribosomes.
Interaction of CEM-101 with S. aureus ribosomes dimethylated at A2058 by Erm-methyltransferase. Erm-methyltransferase modifies A2058 in 23S rRNA by consecutively adding two methyl groups to the exocyclic amino group of the adenine base. […]

[4] = tested on: 2058-dimethylated ribosomes isolated from the S. aureus N315 strain; test: RNA footprinting of A2058-dimethylated (Erm-modified) ribosomes from S. aureus N315; format: binding; conditions: S. aureus N315 ribosomes dimethylated at A2058, drugs at 100 μM
Procedure: as §1
Interaction of CEM-101 with S. aureus ribosomes dimethylated at A2058 by Erm-methyltransferase. Erm-methyltransferase modifies A2058 in 23S rRNA by consecutively adding two methyl groups to the exocyclic amino group of the adenine base. Such modification completely blocks binding of erythromycin and similar macrolides, whereas its effect on binding of ketolides is less clear (Douthwaite, S., L. H. Hansen, and P. Mauvais. 2000. Macrolide-ketolide inhibition of MLS-resistant ribosomes is improved by alternative drug interaction with domain R of 23S rRNA. Mol. Microbiol. 36:183-193; Liu, M., and S. Douthwaite. 2002. Activity of the ketolide telithromycin is refractory to Erm monomethylation of bacterial rRNA. Antimicrob. Agents Chemother. 46:1629-1633). Therefore, interaction of CEM-101 with the ribosomes isolated from a clinical S. aureus strain N315, which carries five chromosomal copies of constitutively expressed ermA gene present in the Tn554 transposon (Kuroda, M., T. Ohta, I. Uchiyama, T. Baba, H. Yuzawa, I. Kobayashi, L. Cui, A. Oguchi, K. Aoki, Y. Nagai, J. Lian, T. Ito, M. Kanamori, H. Matsumaru, A. Maruyama, H. Murakami, A. Hosoyama, Y. Mizutani-Ui, N. K. Takahashi, T. Sawano, R. Inoue, C. Kaito, K. Sekimizu, H. Hirakawa, S. Kuhara, S. Goto, J. Yabuzaki, M. Kanehisa, A. Yamashita, K. Oshima, K. Furuya, C. Yoshino, T. Shiba, M. Hattori, N. Ogasawara, H. Hayashi, and K. Hiramatsu. 2001. Whole genome sequencing of meticillin-resistant Staphylococcus aureacs. Lancet 357:1225-1240) was investigated.
Footprinting analysis was used to test interactions of ketolides (CEM-101 and telithromycin) and cladinose-containing macrolides (CEM-103 and erythromycin) with the 2058-dimethylated ribosomes isolated from the S. aureus N315 strain. Ribosomes were incubated with the drugs (present at 100 μM concentration) and probed by DMS modification. Because dimethylated A2058 blocks progression of reverse transcriptase along the RNA template, a strong reverse transcriptase stop is observed at A2058 on the primer extension gel (Vester, B., and S. Douthwaite. 1994. Domain V of 23S rRNA contains all the structural elements necessary for recognition by the ErmE methyltransferase. J. Bacteriol. 176:6999-7004; Zhong, P., Z. Cao, R. Hammond, Y. Chen, J. Beyer, V. D. Shortridge, L. Y. Phan, S. Pratt, J. Capobianco, K. A. Reich, R. K. Flamm, Y. S. Or, and L. Katz. 1999. Induction of ribosome methylation in MLS-resistant Streptococcus pneumoniae by macrolides and ketolides. Microb. Drug Resist. 5:183-188). Therefore, it is impossible to use footprinting to evaluate interactions of macrolides with this position in the S. aureus N315 ribosomes. […]

ribosomes = conditions: literature values for erythromycin binding; read-out: Kd, previously published; cited from earlier work

CC[C@H]1OC(=O)[C@H](C)[C@@H](O[C@H]2C[C@@](C)(OC)[C@@H](O)[C@H](C)O2)[C@H](C)[C@@H](O[C@@H]2O[C@H](C)C[C@H](N(C)C)[C@H]2O)[C@](C)(O)C[C@@H](C)C(=O)[C@H](C)[C@@H](O)[C@]1(C)O [erythromycin]
Protection of A752 from DMS modification [1]: fails to protect | Kd (E. coli 70S ribosomes): 66 ± 11 nM | Protection of A752 from DMS modification [2]: fails to protect | Kd (S. aureus 70S ribosomes): 11 ± 1 nM | Binding to ribosomes [3]: lack of binding | Protection of A2059 from DMS modification (binding to Erm-modified ribosome) [4]: not | Protection of G2505 from kethoxal modification [4]: did not protect | Protection of U2609 from modification with CMCT [4]: did not protect | Kd (ribosomes): 10 to 100 nM
